US10301308B2, “Azetidine derivatives for tau imaging” (Eli Lilly and Company, priority 2015, dated 2019)

Columns and labels:
[1] = Clinical PET kinetic profile: brain uptake, washout, metabolism; assay type: in vivo, human
Protocol: Clinical evaluation of 3-(3-[18F]-Fluoroazetidin-1-yl)-8-methylbenzo[4,5]imidazo[1,2-a]pyridine (Compound 8) as a PET radioligand for imaging tau protein deposition in patients with AD or other neurodegenerative disorders is conducted in healthy volunteers. AD patients, or Chronic Traumatic Encephalopathy (CTE) subjects, by completion of one or more PET scans with Compound 8. Dynamic PET imaging is acquired on a Siemens ECAT EXACT HR+ over 150 minutes following Compound 8 or [18F]AV-1451 injection (0-60 and 90-150 minute imaging segments). Compound 8 or [18F]AV-1451 scans are acquired similarly in two imaging sessions. A brain MRI is also obtained. PET and MRI images are aligned and normalized, and ATLAS-based volumes of interest (VOI) are applied to the dynamic PET series. Compound 8 or [18F]AV-1451 are evaluated in terms of kinetic profile as well as target region to cerebellum standardized uptake value ratio (SUVr between 100-120 min) between healthy volunteers and AD or CTE subjects.

[2] = Preliminary stability of Compound 8 formulations (radiochemical purity by HPLC); assay type: physicochemical
Protocol: The HPLC fraction containing the purified 3-(3-[18F]-fluoroazetidin-1-yl)-8-methylbenzo[4,5]imidazo[1,2-a]pyridine is diluted with 0.5% (w/v) sodium ascorbate in WFI (40 mL). The diluted solution is then passed through a Sep-Pak® C18 Plus Light Cartridge (130 mg Sorbent per Cartridge, 55-105 μm Particle Size, Waters Part No. WAT023501; conditioned with ethanol (5 mL) then WFI (5 mL) prior to use) and the retained 3-(3-[18F]-fluoroazetidin-1-yl)-8-methylbenzo[4,5]imidazo[1,2-a]pyridine is washed with 0.5% (w/v) sodium ascorbate in water for injection solution (10 mL). 3-(3-[18F]-fluoroazetidin-1-yl)-8-methylbenzo[4,5]imidazo[1,2-a]pyridine is eluted off the C18 cartridge using dehydrated alcohol, USP (1 mL) into a flask containing 7 mL of 0.5% (w/v) sodium ascorbate in 0.9% sodium chloride for injection, USP. The C18 cartridge is then rinsed with an additional 2 mL of 0.5% (w/v) sodium ascorbate in 0.9% sodium chloride for injection, USP. The resulting solution (total 10 mL) is sterile filtered through a 0.22 μm Millex GV PVDF filter (Millipore SLGV013SL) into the bulk product vial (BPV: 30 mL Sterile Empty Vial from Allergy Laboratories with a 20 mm chlorobutyl stopper). A sample from the BPV is taken out for quality control (see FIG. 2 for representative chromatogram) by HPLC using the gradient method detailed in Table 1 below.
Preliminary stability of 3-(3-[18F]-fluoroazetidin-1-yl)-8-methylbenzo[4,5]imidazo[1,2-a]pyridine (Compound 8) formulations are evaluated. Samples from batches (size ranging from 235 mCi to 471 mCi) are taken and analyzed by HPLC for radiochemical purity over an 6 hour time period.

[3] = batch 235 mCi, 23.5 mCi/mL, 10% EtOH, 0.45% Sodium Ascorbate in 0.9% Sodium Chloride
[4] = batch 295 mCi, 14.8 mCi/mL, 10% EtOH, 0.45% Sodium Ascorbate in 0.9% Sodium Chloride
[5] = batch 337 mCi, 33.7 mCi/mL, 10% EtOH, 0.45% Sodium Ascorbate in 0.9% Sodium Chloride
[6] = batch 471 mCi, 47.1 mCi/mL, 10% EtOH in 0.9% Sodium Chloride (no sodium ascorbate)

Cc1ccc2nc3cc(N4CC([18F])C4)ccn3c2c1 [Compound 8, 3-(3-[18F]-fluoroazetidin-1-yl)-8-methylbenzo[4,5]imidazo[1,2-a]pyridine]
intact parent remaining ([1]; 60 min post injection, n=7): 5±3% | max SUV relative to that of [18F]AV-1451 ([1]; healthy volunteers and AD subjects): ~50 % higher | peak brain uptake ([1]; human subjects, dynamic PET): ~8 SUV | Stability Results (% RCP) T0 ([2]; batch 235 mCi, 23.5 mCi/mL, 10% EtOH (v/v), 0.45% (w/v) Sodium Ascorbate in 0.9% Sodium Chloride Injection, USP): 98 % RCP | Stability Results (% RCP) T0+2 h [2, 3]: 97 % RCP | Stability Results (% RCP) T0+4 h [2, 3]: 97 % RCP | Stability Results (% RCP) T0+6 h ([2]; batch 235 mCi, 23.5 mCi/mL, 10% EtOH, 0.45% Sodium Ascorbate in 0.9% Sodium Chloride, T0+6 h): 97 % RCP | Stability Results (% RCP) T0 [2, 4]: 97 % RCP | Stability Results (% RCP) T0+2 h [2, 4]: 96 % RCP | Stability Results (% RCP) T0+4 h [2, 4]: 96 % RCP | Stability Results (% RCP) T0+6 h ([2]; batch 295 mCi, 14.8 mCi/mL, 10% EtOH, 0.45% Sodium Ascorbate in 0.9% Sodium Chloride, T0+6 h): 96 % RCP | Stability Results (% RCP) T0 [2, 5]: 98 % RCP | Stability Results (% RCP) T0+2 h [2, 5]: 97 % RCP | Stability Results (% RCP) T0+4 h [2, 5]: 96 % RCP | Stability Results (% RCP) T0+6 h ([2]; batch 337 mCi, 33.7 mCi/mL, 10% EtOH, 0.45% Sodium Ascorbate in 0.9% Sodium Chloride, T0+6 h): 96 % RCP | Stability Results (% RCP) T0 ([2]; batch 471 mCi, 47.1 mCi/mL, 10% EtOH (v/v) in 0.9% Sodium Chloride Injection, USP (no sodium ascorbate)): 89 % RCP | Stability Results (% RCP) T0+2 h [2, 6]: 89 % RCP | Stability Results (% RCP) T0+4 h [2, 6]: 80 % RCP | Stability Results (% RCP) T0+6 h ([2]; batch 471 mCi, 47.1 mCi/mL, 10% EtOH in 0.9% Sodium Chloride (no sodium ascorbate), T0+6 h column, value taken at 5 h): 0 (5 h) % RCP | stability of formulation over time ([2]; batch formulated without sodium ascorbate): deteriorates over time and degrades by 5 hours | radiochemical purity retained ([2]; batches formulated with sodium ascorbate, up to 6 hours): 96-97%
